Data as given in PubChem BioAssay (NCI).
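A five-concentration, 48-hour dose response in 96-well plates underlies each endpoint, interpolated linearly between surrounding concentrations. Abbreviation: GI50, concentration required for 50% inhibition of growth. TGI marks complete inhibition of growth.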

Assays:
Assay in all cases: NCI tumour cell line growth inhibition, 48 h
HOP-62 NSCLC = test system: HOP-62 NSCLC
SN12C renal = test system: SN12C renal
UO-31 renal = test system: UO-31 renal
SW-620 colon = test system: SW-620 colon
NCI/ADR-RES ovarian = test system: NCI/ADR-RES ovarian
CAKI-1 renal = test system: CAKI-1 renal
LOX IMVI melanoma = test system: LOX IMVI melanoma
A498 renal = test system: A498 renal
KM12 colon = test system: KM12 colon
IGROV1 ovarian = test system: IGROV1 ovarian
BT-549 breast = test system: BT-549 breast
MCF7 breast = test system: MCF7 breast
786-0 renal = test system: 786-0 renal
SK-MEL-2 melanoma = test system: SK-MEL-2 melanoma
SF-295 CNS = test system: SF-295 CNS
OVCAR-4 ovarian = test system: OVCAR-4 ovarian
SNB-19 CNS = test system: SNB-19 CNS
NCI-H226 lung = test system: NCI-H226 lung
ACHN renal = test system: ACHN renal
HCT-116 colon = test system: HCT-116 colon
SK-OV-3 ovarian = test system: SK-OV-3 ovarian
SK-MEL-5 melanoma = test system: SK-MEL-5 melanoma
M14 melanoma = test system: M14 melanoma
A549 NSCLC = test system: A549 NSCLC
HCC-2998 colon = test system: HCC-2998 colon
MDA-MB-435 = test system: MDA-MB-435
HCT-15 colon = test system: HCT-15 colon
HS 578T breast = test system: HS 578T breast
HL-60(TB) leukemia = test system: HL-60(TB) leukemia
SNB-75 CNS = test system: SNB-75 CNS
UACC-257 melanoma = test system: UACC-257 melanoma
T-47D breast = test system: T-47D breast
SF-539 CNS = test system: SF-539 CNS
UACC-62 melanoma = test system: UACC-62 melanoma
DU-145 prostate = test system: DU-145 prostate
OVCAR-5 ovarian = test system: OVCAR-5 ovarian
EKVX NSCLC = test system: EKVX NSCLC
HT29 colon = test system: HT29 colon
NCI-H460 lung = test system: NCI-H460 lung
NCI-H522 lung = test system: NCI-H522 lung
MDA-MB-231 breast = test system: MDA-MB-231 breast
COLO 205 colon = test system: COLO 205 colon
TK-10 renal = test system: TK-10 renal
SK-MEL-28 melanoma = test system: SK-MEL-28 melanoma
HOP-92 NSCLC = test system: HOP-92 NSCLC
U251 CNS = test system: U251 CNS
OVCAR-8 ovarian = test system: OVCAR-8 ovarian

Nc1nc(N)c2c(n1)NC(c1ccccc1)CC(c1ccc(Nc3nc(NCCO)nc(Nc4ccc(Cl)cc4)n3)cc1)=N2 (centres undefined)
GI50 (HOP-62 NSCLC): 1.74 µM | TGI (HOP-62 NSCLC): 3.24 µM | GI50 (SN12C renal): 1.74 µM | TGI (SN12C renal): 3.54 µM | GI50 (UO-31 renal): 1.87 µM | TGI (UO-31 renal): 4.29 µM | GI50 (SW-620 colon): 1.87 µM | TGI (SW-620 colon): 3.48 µM | GI50 (NCI/ADR-RES ovarian): 4.33 µM | TGI (NCI/ADR-RES ovarian): > 100 µM | GI50 (CAKI-1 renal): 2.3 µM | TGI (CAKI-1 renal): 5.79 µM | GI50 (LOX IMVI melanoma): 1.54 µM | TGI (LOX IMVI melanoma): 2.95 µM | GI50 (A498 renal): 1.54 µM | TGI (A498 renal): 3.03 µM | GI50 (KM12 colon): 1.9 µM | TGI (KM12 colon): 3.54 µM | GI50 (IGROV1 ovarian): 1.56 µM | TGI (IGROV1 ovarian): 3.13 µM | GI50 (BT-549 breast): 1.77 µM | TGI (BT-549 breast): 3.2 µM | GI50 (MCF7 breast): 1.51 µM | TGI (MCF7 breast): 3.04 µM | GI50 (786-0 renal): 1.63 µM | TGI (786-0 renal): 3.08 µM | GI50 (SK-MEL-2 melanoma): 1.38 µM | TGI (SK-MEL-2 melanoma): 2.78 µM | GI50 (SF-295 CNS): 1.57 µM | TGI (SF-295 CNS): 2.97 µM | GI50 (OVCAR-4 ovarian): 1.72 µM | TGI (OVCAR-4 ovarian): 3.76 µM | GI50 (SNB-19 CNS): 1.58 µM | TGI (SNB-19 CNS): 2.99 µM | GI50 (NCI-H226 lung): 11.5 µM | TGI (NCI-H226 lung): 31.3 µM | GI50 (ACHN renal): 1.95 µM | TGI (ACHN renal): 4.36 µM | GI50 (HCT-116 colon): 1.51 µM | TGI (HCT-116 colon): 2.84 µM | GI50 (SK-OV-3 ovarian): 17.7 µM | TGI (SK-OV-3 ovarian): 32 µM | GI50 (SK-MEL-5 melanoma): 1.42 µM | TGI (SK-MEL-5 melanoma): 2.72 µM | GI50 (M14 melanoma): 1.84 µM | TGI (M14 melanoma): 3.35 µM | GI50 (A549 NSCLC): 2.84 µM | TGI (A549 NSCLC): 9.18 µM | GI50 (HCC-2998 colon): 1.68 µM | TGI (HCC-2998 colon): 3.1 µM | GI50 (MDA-MB-435): 1.74 µM | TGI (MDA-MB-435): 3.17 µM | GI50 (HCT-15 colon): 1.38 µM | TGI (HCT-15 colon): 2.84 µM | GI50 (HS 578T breast): 1.98 µM | TGI (HS 578T breast): 5.15 µM | GI50 (HL-60(TB) leukemia): 0.319 µM | TGI (HL-60(TB) leukemia): 1.48 µM | GI50 (SNB-75 CNS): 1.56 µM | TGI (SNB-75 CNS): 3.13 µM | GI50 (UACC-257 melanoma): 1.9 µM | TGI (UACC-257 melanoma): 3.49 µM | GI50 (T-47D breast): 1.52 µM | TGI (T-47D breast): 3.32 µM | GI50 (SF-539 CNS): 1.6 µM | TGI (SF-539 CNS): 3.06 µM | GI50 (UACC-62 melanoma): 1.84 µM | TGI (UACC-62 melanoma): 3.32 µM | GI50 (DU-145 prostate): 1.8 µM | TGI (DU-145 prostate): 3.38 µM | GI50 (OVCAR-5 ovarian): 1.94 µM | TGI (OVCAR-5 ovarian): 3.75 µM | GI50 (EKVX NSCLC): 1.64 µM | TGI (EKVX NSCLC): 3.17 µM | GI50 (HT29 colon): 1.77 µM | TGI (HT29 colon): 3.33 µM | GI50 (NCI-H460 lung): 1.85 µM | TGI (NCI-H460 lung): 3.47 µM | GI50 (NCI-H522 lung): 1.79 µM | TGI (NCI-H522 lung): 3.48 µM | GI50 (MDA-MB-231 breast): 1.75 µM | TGI (MDA-MB-231 breast): 3.48 µM | GI50 (COLO 205 colon): 1.79 µM | TGI (COLO 205 colon): 3.31 µM | GI50 (TK-10 renal): 2.09 µM | TGI (TK-10 renal): 3.87 µM | GI50 (SK-MEL-28 melanoma): 1.73 µM | TGI (SK-MEL-28 melanoma): 3.12 µM | GI50 (HOP-92 NSCLC): 1.42 µM | TGI (HOP-92 NSCLC): 3.09 µM | GI50 (U251 CNS): 1.53 µM | TGI (U251 CNS): 2.99 µM | GI50 (OVCAR-8 ovarian): 1.46 µM | TGI (OVCAR-8 ovarian): 3.1 µM
